According to PubChem BioAssay AID328 (DTP/NCI, 2004):
Values joined by “and” are separate entries in the source; they are usually repeats but may differ in a detail not shown here. Equal entries are not always repeated. Inconclusive results and toxic doses are left out.

Test system: BDF1 mice, P388 leukemia ip, median survival T/C
Assay: NCI In Vivo Anticancer Drug Screen. Data for tumor model P388 Leukemia (intraperitoneal) in B6D2F1 (BDF1) mice
Settings: endpoint: median survival time, higher = longer survival
Summary of the method: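 Vehicle-dosed animals serve as the reference; survival of compound-dosed, tumour-implanted mice is divided by it.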

[1] = dose: 100.0 mg/kg/injection, schedule: Q01DX009 (ip), vehicle: saline with Tween-80
[2] = dose: 100.0 mg/kg/injection, schedule: Q04DX003 (ip), vehicle: saline
[3] = dose: 200.0 mg/kg/injection, schedule: Q04DX003 (ip), vehicle: saline
[4] = dose: 400.0 mg/kg/injection, schedule: Q04DX003 (ip), vehicle: saline
[5] = dose: 200.0 mg/kg/injection, schedule: Q04DX003 (ip), vehicle: Klucel (hydroxypropylcellulose) (HPC)
[6] = dose: 400.0 mg/kg/injection, schedule: Q04DX003 (ip), vehicle: Klucel (hydroxypropylcellulose) (HPC)
[7] = dose: 100.0 mg/kg/injection, schedule: Q01DX009 (ip), vehicle: Klucel (hydroxypropylcellulose) (HPC)
[8] = dose: 200.0 mg/kg/injection, schedule: Q01DX009 (ip), vehicle: Klucel (hydroxypropylcellulose) (HPC)
[9] = dose: 400.0 mg/kg/injection, schedule: Q01DX009 (ip), vehicle: Klucel (hydroxypropylcellulose) (HPC)
[10] = dose: 100.0 mg/kg/injection, schedule: Q04DX003 (ip), vehicle: Klucel (hydroxypropylcellulose) (HPC)
[11] = dose: 50.0 mg/kg/injection, schedule: Q01DX009 (ip), vehicle: saline with Tween-80

SMILES: Nc1ncnc2c1nnn2C1OC(CO)C(O)C1O (configuration not stated)
- T/C (dose: 10.0 mg/kg/injection, schedule: Q01DX009 (ip), vehicle: Klucel (hydroxypropylcellulose) (HPC)): 150 % of control
- T/C (dose: 15.0 mg/kg/injection, schedule: Q01DX009 (ip), vehicle: Klucel (hydroxypropylcellulose) (HPC)): 160 % of control
- T/C (dose: 18.0 mg/kg/injection, schedule: Q01DX009 (ip), vehicle: Klucel (hydroxypropylcellulose) (HPC)): 161 % of control
- T/C (dose: 24.0 mg/kg/injection, schedule: Q01DX009 (ip), vehicle: Klucel (hydroxypropylcellulose) (HPC)): 96 % of control
- T/C (dose: 27.0 mg/kg/injection, schedule: Q01DX009 (ip), vehicle: Klucel (hydroxypropylcellulose) (HPC)): 170 % of control
- T/C (dose: 28.0 mg/kg/injection, schedule: Q01DX009 (ip), vehicle: Klucel (hydroxypropylcellulose) (HPC)): 170 % of control
- T/C (dose: 35.0 mg/kg/injection, schedule: Q01DX009 (ip), vehicle: Klucel (hydroxypropylcellulose) (HPC)): 99 % of control
- T/C (dose: 40.0 mg/kg/injection, schedule: Q01DX009 (ip), vehicle: Klucel (hydroxypropylcellulose) (HPC)): 104 % of control
- T/C (dose: 42.0 mg/kg/injection, schedule: Q01DX009 (ip), vehicle: Klucel (hydroxypropylcellulose) (HPC)): 170 % of control
- T/C (dose: 53.0 mg/kg/injection, schedule: Q01DX009 (ip), vehicle: Klucel (hydroxypropylcellulose) (HPC)): 107 % of control
- T/C (dose: 60.0 mg/kg/injection, schedule: Q01DX009 (ip), vehicle: Klucel (hydroxypropylcellulose) (HPC)): 91 % of control
- T/C (dose: 63.0 mg/kg/injection, schedule: Q01DX009 (ip), vehicle: Klucel (hydroxypropylcellulose) (HPC)): 115 % of control
- T/C (dose: 79.0 mg/kg/injection, schedule: Q01DX009 (ip), vehicle: Klucel (hydroxypropylcellulose) (HPC)): 102 % of control

SMILES: Nc1[nH]c(=S)[nH]c(=O)c1NC(=O)C1CC1
- T/C [1]: 100 % of control
- T/C [2]: 104 % of control
- T/C (dose: 200.0 mg/kg/injection, schedule: Q01DX009 (ip), vehicle: saline with Tween-80): 100 % of control
- T/C [3]: 104 % of control
- T/C (dose: 400.0 mg/kg/injection, schedule: Q01DX009 (ip), vehicle: saline with Tween-80): 100 % of control
- T/C [4]: 100 % of control

SMILES: CCOC(=O)CNCc1cccnc1
- T/C [2]: 120 % of control
- T/C [3]: 117 % of control
- T/C [4]: 118 % of control

SMILES: CC(O)C(O)C(O)C(O)/C=N/O (configuration not stated)
- T/C [5]: 92 % of control
- T/C [6]: 88 % of control

SMILES: CC1=NNC(=O)C1CCO (configuration not stated)
- T/C (dose: 50.0 mg/kg/injection, schedule: Q01DX009 (ip), vehicle: Klucel (hydroxypropylcellulose) (HPC)): 86 % of control
- T/C [7]: 104 % of control
- T/C (dose: 175.0 mg/kg/injection, schedule: Q01DX009 (ip), vehicle: Klucel (hydroxypropylcellulose) (HPC)): 90 % of control
- T/C [8]: 122 % of control
- T/C (dose: 265.0 mg/kg/injection, schedule: Q01DX009 (ip), vehicle: Klucel (hydroxypropylcellulose) (HPC)): 104 % of control
- T/C [9]: 95 % of control

SMILES: O=Cc1cn[nH]c1-c1ccccc1
- T/C [7]: 92 % of control
- T/C [10]: 87 % of control
- T/C [8]: 88 % of control
- T/C [5]: 87 % of control

SMILES: COC1OCC(N=[N+]=[N-])C2OC12 (configuration not stated)
- T/C (dose: 25.0 mg/kg/injection, schedule: Q01DX009 (ip), vehicle: water): 96 % of control
- T/C (dose: 50.0 mg/kg/injection, schedule: Q01DX009 (ip), vehicle: water): 102 % of control
- T/C (dose: 100.0 mg/kg/injection, schedule: Q01DX009 (ip), vehicle: water): 119 % of control
- T/C (dose: 200.0 mg/kg/injection, schedule: Q01DX009 (ip), vehicle: water): 102 % of control

SMILES: C(#Cc1ccccc1)COCC1CO1 (configuration not stated)
- T/C [1]: 116 % of control
- T/C [2]: 90 % of control
- T/C [3]: 90 % of control
- T/C [4]: 120 % of control

SMILES: CC1(C)N=C(N)N=C(N)N1c1cccc(OCCOc2ccc([N+](=O)[O-])cc2)c1
- T/C (dose: 50.0 mg/kg/injection, schedule: Q01DX009 (ip), vehicle: saline sonified): 110 % of control
- T/C (dose: 50.0 mg/kg/injection, schedule: Q04DX003 (ip), vehicle: saline sonified): 100 % of control
- T/C (dose: 100.0 mg/kg/injection, schedule: Q01DX009 (ip), vehicle: saline sonified): 160 % of control
- T/C (dose: 100.0 mg/kg/injection, schedule: Q04DX003 (ip), vehicle: saline sonified): 107 % of control
- T/C (dose: 200.0 mg/kg/injection, schedule: Q04DX003 (ip), vehicle: saline sonified): 107 % of control

SMILES: O=[N+]([O-])c1ccccc1N=N/C(Cc1ccccc1)=N\Nc1ccccc1
- T/C [7]: 120 % of control
- T/C [8]: 115 % of control

SMILES: O=S(=O)(O)c1cc(O)c2cc(Nc3ccccc3)ccc2c1
- T/C (dose: 50.0 mg/kg/injection, schedule: Q04DX003 (ip), vehicle: saline): 104 % of control
- T/C [2]: 113 % of control
- T/C [3]: 109 % of control

SMILES: Nc1ccc(Cl)cc1C(=O)c1ccc[nH]1
- T/C [7]: 100 % of control
- T/C [10]: 100 % of control
- T/C [8]: 95 % of control
- T/C [5]: 100 % of control
- T/C [9]: 100 % of control
- T/C [6]: 95 % of control

SMILES: CN(CO)c1nc(N(C)CO)nc(N(C)CO)n1
- T/C (dose: 12.5 mg/kg/injection, schedule: Q01DX005 (ip), vehicle: saline): 104 % of control
- T/C (dose: 25.0 mg/kg/injection, schedule: Q01DX005 (ip), vehicle: saline): 113 % of control
- T/C (dose: 100.0 mg/kg/injection, schedule: Q01DX005 (ip), vehicle: saline): 155 % of control

SMILES: COc1ccc(CC2C(=O)NC(C)C(=O)N(C)C3C(=O)N(C)C(Cc4ccc(O)c(c4)Oc4ccc(cc4)C3O)C(=O)NC(C)C(=O)NC(C)C(=O)N2C)cc1 (configuration not stated)
- T/C (dose: 0.11 mg/kg/injection, schedule: Q01DX009 (ip), vehicle: alcohol): 150 % of control
- T/C (dose: 0.11 mg/kg/injection, schedule: Q01DX009 (ip), vehicle: saline): 164 % of control
- T/C (dose: 0.16 mg/kg/injection, schedule: Q01DX009 (ip), vehicle: alcohol): 158 % of control
- T/C (dose: 0.25 mg/kg/injection, schedule: Q01DX009 (ip), vehicle: alcohol): 188 % of control
- T/C (dose: 1.0 mg/kg/injection, schedule: Q01DX009 (ip), vehicle: distilled water + Tween-80): 173 % of control
- T/C (dose: 10.0 micrograms/kg/injection, schedule: Q01DX009 (ip), vehicle: alcohol): 110 % of control
- T/C (dose: 518.0 micrograms/kg/injection, schedule: Q04DX003 (ip), vehicle: other): 163 % of control
- T/C (dose: 864.0 micrograms/kg/injection, schedule: Q04DX003 (ip), vehicle: other): 184 % of control
- T/C (dose: 1440.0 micrograms/kg/injection, schedule: Q04DX003 (ip), vehicle: other): 175 % of control
- T/C (dose: 2400.0 micrograms/kg/injection, schedule: Q04DX003 (ip), vehicle: other): 181 % of control

SMILES: O=C(c1ccccc1)C1C(c2ccccc2)N1CCl (configuration not stated)
- T/C [10]: 113 % of control
- T/C [5]: 100 % of control
- T/C [6]: 100 % of control

SMILES: O=C1CSC(C23CC4CC(CC(C4)C2)C3)N1c1nccs1 (configuration not stated)
- T/C [11]: 92 % of control
- T/C [1]: 90 % of control

SMILES: CCCC(C)(C)SSC(C)(C)CCC
- T/C (dose: 25.0 mg/kg/injection, schedule: Q01DX009 (ip), vehicle: saline with Tween-80): 90 % of control
- T/C [11]: 90 % of control and 100 % of control
- T/C [1]: 95 % of control and 118 % of control
- T/C (dose: 100.0 mg/kg/injection, schedule: Q04DX003 (ip), vehicle: saline with Tween-80): 90 % of control
- T/C (dose: 200.0 mg/kg/injection, schedule: Q04DX003 (ip), vehicle: saline with Tween-80): 113 % of control

SMILES: CCOC(=O)Nc1cc2c(c(N)n1)N=C(CN(C)c1ccccc1)CN2
- T/C (dose: 12.5 mg/kg/injection, schedule: Q01DX001 (ip), vehicle: Klucel (hydroxypropylcellulose) (HPC)): 123 % of control
- T/C (dose: 50.0 mg/kg/injection, schedule: Q01DX001 (ip), vehicle: Klucel (hydroxypropylcellulose) (HPC)): 164 % of control
- T/C (dose: 100.0 mg/kg/injection, schedule: Q01DX001 (ip), vehicle: Klucel (hydroxypropylcellulose) (HPC)): 211 % of control

SMILES: c1ccc2c(c1)Cn1c-2nc2ccccc21
- T/C (dose: 100.0 mg/kg/injection, schedule: Q04DX003 (ip), vehicle: other): 118 % of control
- T/C (dose: 200.0 mg/kg/injection, schedule: Q04DX003 (ip), vehicle: other): 109 % of control
- T/C (dose: 400.0 mg/kg/injection, schedule: Q04DX003 (ip), vehicle: other): 113 % of control
